Like-named read-outs stand apart in the source and are kept apart here.
Key:
α7 nAChR = α7 nAChR (Rattus norvegicus (Rat), UniProt Q05941); assay type: binding
Protocol: (§1) In Vitro Binding Affinities for nAChR Subtypes. […] To determine selectivities of these compounds in binding assays among the three predominant nAChR subtypes, α3β4, α4β2 and α7, the ratios of Ki values (α3β4/α4β2 and α7/α4β2) were determined.
(§2) Cell Lines and Cell Culture. The cell lines expressing defined rat nAChR subtypes were established previously by stably transfecting HEK 293 cells with rat nAChR subunit genes. The cell line expressing human α4β2 nAChRs, YXα4β2H1, was established recently. These cell lines were maintained in minimum essential medium (MEM) supplemented with 10% fetal bovine serum, 100 units/mL penicillin G, […] and selective antibiotics at 37° C. with 5% CO2 in a humidified incubator. Fetal bovine serum was provided by Gemini Bio-Products (Woodland, Calif.). Tissue culture medium and antibiotics were obtained from Invitrogen Corporation (Carlsbad, Calif.), unless otherwise stated.
(§3) Briefly, cultured cells at >80% confluence were removed from their flasks (80 cm^2) with a disposable cell scraper and placed in 10 mL of 50 mM Tris.HCl buffer (pH 7.4, 4° C.). The cell suspension was centrifuged at 10,000×g for 5 min and the pellet was collected. The cell pellet was then homogenized in 10 mL buffer with a polytron homogenizer and centrifuged at 36,000 g for 10 min at 4° C. The membrane pellet was resuspended in fresh buffer, and aliquots of the membrane preparation were used for binding assays. […] Bound and free ligands were separated by vacuum filtration through Whatman GF/C filters treated with 0.5% polyethylenimine. The filter-retained radioactivity was measured by liquid scintillation counting. Specific binding was defined as the difference between total binding and nonspecific binding. Data from competition binding assays were analyzed using Prism 5 (GraphPad Software, San Diego, Calif.).
(§4) Pharmacological Properties. We measured the in vitro binding affinities of the ligands for defined receptor subtypes (α2β2, α2β4, α3β2, α3β4, α4β2, α4β4, α6β2, α6β4, and α7) expressed in stably transfected cell lines. […] Rat forebrain homogenates were included to allow comparison between the heterologous and native α4β2 and α7 nAChRs. See Table 1 for binding affinity values (Ki) of the ligands at the three major nAChR subtypes (α3β4. α4β2 and α7).

α4β2 nAChR = α4β2 nAChR (Rattus norvegicus (Rat), UniProt P09483+P12390); experiment: biochemical; assay type: binding; conditions: for Ki: read-out: Ki α4β2; for Ki Ratio α3β4/α4β2: selectivity for α4β2 over α3β4; for Ki Ratio α7/α4β2: selectivity for α4β2 over α7
Protocol: as §1, §2, §3, §4

α3β4 nAChR = α3β4 nAChR (Rattus norvegicus (Rat), UniProt P04757+P12392); experiment: [3H]-epibatidine competition binding, α3β4
Protocol: as §1, §2, §3, §4

human α4β2 nAChRs = human α4β2 nAChRs (Homo sapiens (Human), UniProt P17787+P43681); experiment: 86Rb+ efflux assay (activation and desensitization), α4β2; assay type: cell-based; conditions: for IC50: desensitization
Protocol: (§5) In Vitro Effects on nAChR Function. […] Their agonist activities were assessed by measuring stimulated ^86Rb^+ efflux from stably transfected cells, either expressing human α4β2 nAChRs or rat α3β4 receptors.
as §2
(§6) ^86Rb^+ Efflux Assay. Functional properties of compounds at nAChRs expressed in the transfected cells were measured using ^86Rb^+ efflux assays as described previously. In brief, cells expressing human α4β2 or rat α3β4 nAChRs were plated into 24-well plates coated with poly-D-lysine. The plated cells were grown at 37° C. for 18 to 24 hour to reach 85-95% confluence. The cells were then incubated in growth medium (0.5 mL/well) containing ^86Rb^+ (2 μCi/mL) for 4 hour at 37° C. The loading mixture was then aspirated, and the cells were washed four times with 1 mL buffer (15 mM HEPES, 140 mM NaCl, 2 mM KCl, 1 mM MgSO4, 1.8 mM CaCl2, 11 mM Glucose, pH 7.4). One mL of buffer with or without compounds to be tested was then added to each well. After incubation for 2 min, the assay buffer was collected for measurements of ^86Rb^+ released from the cells. Cells were then lysed by adding 1 mL of 100 mM NaOH to each well, and the lysate was collected for determination of the amount of ^86Rb^+ that was in the cells at the end of the efflux assay. Radioactivity of assay samples and lysates was measured by liquid scintillation counting. Total loading (cpm) was calculated as the sum of the assay sample and the lysate of each well. The amount of ^86Rb^+ efflux was expressed as a percentage of ^86Rb^+ loaded. […] For obtaining EC50 and Emax values, stimulation curves were constructed in which 8 different concentrations of a ligand were included in the assay. […] EC50, Emax and IC50(10′) values were determined by nonlinear least-squares regression analyses (GraphPad, San Diego, Calif.).
(§7) The functional properties of the ligands were determined by ^86Rb^+ efflux assays in cells expressing α3β4 and α4β2 nAChR subtypes. The functional activity of each ligand was measured for its agonism, antagonism and desensitization ability. Agonist activity for each of the ligands was tested at eight different concentrations. […] The full concentration-effect curves generated potency (EC50) and efficacy (Emax) of each ligand. […] We tested each ligand for antagonist activity at eight concentrations. The potency (IC50(0′)) of each ligand as an antagonist was derived from the full concentration-effect curves.

rat α3β4 nAChRs = rat α3β4 nAChRs (Rattus norvegicus (Rat), UniProt P04757+P12392); experiment: 86Rb+ efflux assay (activation and desensitization), α3β4; assay type: cell-based
Protocol: as §5, §2, §6, §7

α3β2 nAChR = α3β2 nAChR (Rattus norvegicus (Rat), UniProt P04757+P12390); experiment: [3H]-epibatidine competition binding, α3β2; conditions: Table 1; mean of 3 to 5 measurements
Protocol: as §1
as §2, with “Tissue culture medium and antibiotics were obtained from Invitrogen Corporation (Carlsbad, Calif.), unless otherwise stated.” left out
(§8) Briefly, cultured cells at >80% confluence were removed from their flasks (80 cm^2) with a disposable cell scraper and placed in 10 mL of 50 mM Tris.HCl buffer (pH 7.4, 4° C.). […] The filter-retained radioactivity was measured by liquid scintillation counting. […] Data from competition binding assays were analyzed using Prism 5 (GraphPad Software, San Diego, Calif.).
(§9) Pharmacological Properties. We measured the in vitro binding affinities of the ligands for defined receptor subtypes (α2β2, α2β4, α3β2, α3β4, α4β2, α4β4, α6β2, α6β4, and α7) expressed in stably transfected cell lines. […]

α4β4 nAChR = α4β4 nAChR (Rattus norvegicus (Rat), UniProt P09483+P12392); experiment: [3H]-epibatidine competition binding, α4β4; conditions: Table 1; mean of 3 to 5 measurements
Protocol: as §1
as §2, with “Tissue culture medium and antibiotics were obtained from Invitrogen Corporation (Carlsbad, Calif.), unless otherwise stated.” left out
as §8, §9

α2β2 nAChR = α2β2 nAChR (Rattus norvegicus (Rat), UniProt P12389+P12390); experiment: [3H]-epibatidine competition binding, α2β2; conditions: Table 1; mean of 3 to 5 measurements
Protocol: as §1
as §2, with “Tissue culture medium and antibiotics were obtained from Invitrogen Corporation (Carlsbad, Calif.), unless otherwise stated.” left out
as §8, §9

α2β4 nAChR = α2β4 nAChR (Rattus norvegicus (Rat), UniProt P12389+P12392); experiment: [3H]-epibatidine competition binding, α2β4; conditions: Table 1; mean of 3 to 5 measurements
Protocol: as §1
as §2, with “Tissue culture medium and antibiotics were obtained from Invitrogen Corporation (Carlsbad, Calif.), unless otherwise stated.” left out
as §8, §9

[1] = Table 1, mean of 3 to 5 measurements
[2] = agonist efficacy normalized to Emax of nicotine, ND = no significant stimulated efflux detected
[3] = 10 min pre-incubation before 100 μM nicotine, Table 2, read-out: IC50(10′) α4β2 nAChRs
[4] = read-out: IC50(10′) α3β4 nAChRs
[5] = 10 min pre-treatment, Table 3 (Example 4), read-out: IC50(10′) α4β2

SMILES: CCCCC#Cc1cnc(C)c(OC[C@H]2CCN2)c1 [(R)-15, (R)-3-(azetidin-2-ylmethoxy)-5-(hex-1-ynyl)-2-methylpyridine]
- Ki (α7 nAChR; [1]): 160 µM
- Ki (α7 nAChR; Table 3 (Example 4)): 120 µM
- Ki (α4β2 nAChR; [1]): 0.74 µM
- Ki Ratio α3β4/α4β2 (α4β2 nAChR): 270
- Ki Ratio α7/α4β2 (α4β2 nAChR): 220
- Ki (α3β4 nAChR; [1]): 200 µM

SMILES: CCCCC#Cc1cnc(C)c(OC[C@H]2CCCN2)c1 [(R)-16, (R)-5-(hex-1-ynyl)-2-methyl-3-(pyrrolidin-2-ylmethoxy) pyridine]
- Ki (α7 nAChR; [1]): 110 µM
- Ki (α4β2 nAChR; Table 3 (Example 4)): 9.9 µM
- Ki Ratio α3β4/α4β2 (α4β2 nAChR): 22
- Ki Ratio α7/α4β2 (α4β2 nAChR): 11
- Ki (α3β4 nAChR; Table 3 (Example 4)): 22 µM

SMILES: CCCCC#Cc1cnc(C)c(OC[C@@H]2CCCN2)c1 [(S)-16, (S)-5-(hex-1-ynyl)-2-methyl-3-(pyrrolidin-2-ylmethoxy)pyridine]
- Ki (α7 nAChR; Table 3 (Example 4)): 81 µM
- Emax α4β2 nAChRs (human α4β2 nAChRs; [2]): didn't show detectable agonist activity
- IC50 (human α4β2 nAChRs; [3]): 1.6 µM
- Ki (α4β2 nAChR; Table 3 (Example 4)): 0.073 µM
- Ki (α3β4 nAChR; Table 3 (Example 4)): 94 µM
- IC50 (rat α3β4 nAChRs; [4]): 6.4 µM

SMILES: Cc1ncc(C#CCCCCO)cc1OC[C@@H]1CCN1 [(S)-17, (S)-6-(5-(azetidin-2-ylmethoxy)-6-methylpyridin-3-yl)hex-5-yn-1-ol]
- Ki (α7 nAChR; Table 3 (Example 4)): 170 µM
- EC50 (human α4β2 nAChRs; agonist activity, ND = no significant stimulated efflux detected): 0.063 µM
- Emax (human α4β2 nAChRs; agonist efficacy normalized to Emax of nicotine, ND = no significant stimulated efflux detected, read-out: Emax α4β2 nAChRs): < 20%
- IC50 (human α4β2 nAChRs; [5]): 0.042 µM
- IC50 (human α4β2 nAChRs; [3]): 0.051 µM
- Ki (α4β2 nAChR; [1]): 0.0043 µM
- reduction in binding affinity for α4β2 nAChRs (α4β2 nAChR; relative to Sazetidine-A): 70 fold
- Ki Ratio α3β4/α4β2 (α4β2 nAChR): 70,000
- Ki Ratio α7/α4β2 (α4β2 nAChR): 40,000
- Ki (α3β4 nAChR; Table 3 (Example 4)): 250 µM
- IC50 (rat α3β4 nAChRs; read-out: IC50(10′) α3β4): 50 µM
- IC50 (rat α3β4 nAChRs; [4]): > 10 µM

SMILES: Cc1ncc(C#CCCCCF)cc1OC[C@@H]1CCN1 [(S)-22, (S)-3-(azetidin-2-ylmethoxy)-5-(6-fluorohex-1-ynyl)-2-methylpyridine]
- Ki (α7 nAChR; [1]): 150 µM
- Ki (α7 nAChR; Table 3 (Example 4)): 150 µM
- Emax α4β2 nAChRs (human α4β2 nAChRs; [2]): didn't show detectable agonist activity
- IC50 (human α4β2 nAChRs; [5]): 0.14 µM
- IC50 (human α4β2 nAChRs; [3]): 0.13 µM
- Ki (α3β2 nAChR): 0.23 µM
- Ki (α4β4 nAChR): 3 µM
- Ki (α2β2 nAChR): 0.0087 µM
- Ki (α3β4 nAChR; [1]): 150 µM
- Ki (α3β4 nAChR; Table 3 (Example 4)): 130 µM
- IC50 (rat α3β4 nAChRs; read-out: IC50(10′) α3β4): 13 µM
- IC50 (rat α3β4 nAChRs; [4]): > 10 µM
- Ki (α2β4 nAChR): 24 µM
